Measurements reported in patent publication US7074789B2, “Kinase inhibitors” (Amgen Inc., priority 1999, dated 2006).

Experiments:
Type in all cases: biochemical
IGFR-1 = target: T1, IGFR-1 (Homo sapiens, UniProt P08069); experiment: Kinase inhibition assay, IGFR-1 (Table 2); conditions: Table 2, kinase inhibition class
T1 construct: Kinases are expressed as either kinase domains or full length constructs; made in house

Kdr = target: T2, Kdr (Homo sapiens, UniProt P35968); experiment: Kinase inhibition assay (33P transfer), Kdr; conditions: read-out: KDR-1
T2 construct: Kinases are expressed as either kinase domains or full length constructs; made in house
Summary of the method: (§1)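 Recombinant kinase-domain or full-length fusion proteins (GST or His tag) served as enzyme. Substrate poly(Glu,Tyr) 4:1 or poly(Arg,Ser) 3:1 was bound to the plate; transferred 33P was read by liquid scintillation following acid washing.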

EGFR = target: T3, EGFR (Homo sapiens, UniProt P00533); experiment: Kinase inhibition assay (33P transfer), EGFR; conditions: Table 2, kinase inhibition class; read-out: EGFR-1
T3 construct: Kinases are expressed as either kinase domains or full length constructs; made in house
Summary of the method: (§2)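 Recombinant kinase domains or full-length GST- or His-tagged constructs, from E. coli or baculovirus/High Five cells, sometimes with regulatory polypeptides. Transfer of 33P from ATP to plate-bound poly(Glu,Tyr) 4:1 or poly(Arg,Ser) 3:1 counted by liquid scintillation after phosphoric acid wash; IC50 is the concentration halving incorporation.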

c-Met = target: T4, c-Met (Homo sapiens, UniProt P08581); experiment: Kinase inhibition assay (33P transfer), c-Met; conditions: Table 2, kinase inhibition class; read-out: Met-1
T4 construct: Kinases are expressed as either kinase domains or full length constructs; made in house
Summary of the method: as §2

Lck = target: T5, Lck (Homo sapiens, UniProt P06239); experiment: Kinase inhibition assay (33P transfer), Lck; conditions: read-out: Lck-1
T5 construct: Kinases are expressed as either kinase domains or full length constructs; made in house
Summary of the method: as §1

ErbB2 = target: T6, ErbB2 (Homo sapiens, UniProt P04626); experiment: Kinase inhibition assay (33P transfer), ErbB2; conditions: read-out: ErbB2-2
T6 construct: Kinases are expressed as either kinase domains or full length constructs; made in house
From the text: The inhibitor compounds described herein are screened in the following manner. Kinases suitable for use in the following protocol to determine kinase activity of the compounds described herein include, -but are not limited to: Lck, Lyn, Src, Fyn, Syk, Zap-70, Itk, Tec, Btk, EGFR, ErbB2, Kdr, Flt-1, Flt-3, Tek, c-Met, InsR, and AKT.
Kinases are expressed as either kinase domains or full length constructs fused to glutathione S-transferase (GST) or polyHistidine tagged fusion proteins in either E. colior Baculovirus-High Five expression systems. They are purified to near homogeneity by affinity chromatography essentially as previously described (Lehr et al., 1996; Gish et al., 1995). In some instances, kinases are co-expressed or mixed with purified or partially purified regulatory polypeptides prior to measurement of activity.
Kinase activity and inhibition are measured essentially by established protocols (Braunwalder et al., 1996). Briefly, The transfer of ^33PO4 from ATP to the synthetic substrates poly(Glu, Tyr) 4:1 or poly(Arg, Ser) 3:1 attached to the bioactive surface of microtiter plates serves as the basis to evaluate enzyme activity. After an incubation period, the amount of phosphate transferred is measured by first washing the plate with 0.5% phosphoric acid, adding liquid scintillant, and then counting in a liquid scintillation detector. The IC50 is determined by the concentration of compound that causes a 50% reduction in the amount of […] incorporated onto the substrate bound to the plate.

Zap-70 = target: T7, Zap-70 (Homo sapiens, UniProt P43403); experiment: Kinase inhibition assay (33P transfer), Zap-70; conditions: read-out: Zap-1
T7 construct: Kinases are expressed as either kinase domains or full length constructs; made in house
T7 sequence (P43403 1-619): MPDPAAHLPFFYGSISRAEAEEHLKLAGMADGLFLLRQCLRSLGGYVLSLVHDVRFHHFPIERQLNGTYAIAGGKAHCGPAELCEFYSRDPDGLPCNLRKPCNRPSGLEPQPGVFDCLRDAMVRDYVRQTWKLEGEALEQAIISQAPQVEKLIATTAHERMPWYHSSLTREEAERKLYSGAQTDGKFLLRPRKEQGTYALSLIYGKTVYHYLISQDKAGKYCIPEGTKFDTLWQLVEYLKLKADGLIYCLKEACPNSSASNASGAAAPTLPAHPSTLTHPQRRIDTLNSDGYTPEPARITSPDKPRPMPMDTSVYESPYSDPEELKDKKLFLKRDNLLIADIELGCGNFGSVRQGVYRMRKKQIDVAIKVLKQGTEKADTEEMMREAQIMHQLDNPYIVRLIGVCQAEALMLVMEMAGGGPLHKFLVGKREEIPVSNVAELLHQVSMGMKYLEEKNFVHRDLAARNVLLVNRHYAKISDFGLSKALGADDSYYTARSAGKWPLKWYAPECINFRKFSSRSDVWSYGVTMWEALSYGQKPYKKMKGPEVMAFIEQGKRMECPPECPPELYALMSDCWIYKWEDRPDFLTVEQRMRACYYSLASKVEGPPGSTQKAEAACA
Summary of the method: as §1

PDGFRB = target: T8, PDGFRB (Homo sapiens, UniProt P09619); experiment: Kinase inhibition assay (33P transfer), PDGFRB; conditions: read-out: PDGFRB-1
T8 construct: Kinases are expressed as either kinase domains or full length constructs; made in house

Itk = target: T9, Itk (Homo sapiens, UniProt Q08881); experiment: Kinase inhibition assay (33P transfer), Itk; conditions: read-out: Itk-1
T9 construct: Kinases are expressed as either kinase domains or full length constructs; made in house
T9 sequence (Q08881 1-620): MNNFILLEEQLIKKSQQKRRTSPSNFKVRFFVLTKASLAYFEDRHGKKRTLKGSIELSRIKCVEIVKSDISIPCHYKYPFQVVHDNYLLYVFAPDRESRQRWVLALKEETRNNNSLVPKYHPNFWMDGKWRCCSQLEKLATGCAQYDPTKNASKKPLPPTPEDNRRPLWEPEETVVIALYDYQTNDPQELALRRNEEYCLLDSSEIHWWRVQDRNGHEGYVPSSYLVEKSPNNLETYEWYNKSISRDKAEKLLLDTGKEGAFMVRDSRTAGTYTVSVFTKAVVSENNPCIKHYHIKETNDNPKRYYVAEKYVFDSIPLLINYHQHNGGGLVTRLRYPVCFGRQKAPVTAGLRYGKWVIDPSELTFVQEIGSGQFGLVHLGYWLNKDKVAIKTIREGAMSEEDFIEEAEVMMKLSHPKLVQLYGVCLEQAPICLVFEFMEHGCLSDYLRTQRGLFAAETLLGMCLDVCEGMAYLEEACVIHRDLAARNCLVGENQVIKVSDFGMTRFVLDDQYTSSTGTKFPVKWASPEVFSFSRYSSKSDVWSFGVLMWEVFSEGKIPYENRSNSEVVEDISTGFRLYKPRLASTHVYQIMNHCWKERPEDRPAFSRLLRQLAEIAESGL
Summary of the method: as §2

AKT = target: T10, AKT (Homo sapiens, UniProt Q9Y243); experiment: Kinase inhibition assay (33P transfer), AKT; conditions: Table 2, kinase inhibition class; read-out: AKT3-1
T10 construct: Kinases are expressed as either kinase domains or full length constructs; made in house
Summary of the method: as §1

Tek = target: T11, Tek (Homo sapiens, UniProt Q02763); experiment: Kinase inhibition assay (33P transfer), Tek; conditions: read-out: Tek-1
T11 construct: Kinases are expressed as either kinase domains or full length constructs; made in house
Summary of the method: as §2

T5 sequence (P06239 whole entry, species assumed, the tested form may be a part): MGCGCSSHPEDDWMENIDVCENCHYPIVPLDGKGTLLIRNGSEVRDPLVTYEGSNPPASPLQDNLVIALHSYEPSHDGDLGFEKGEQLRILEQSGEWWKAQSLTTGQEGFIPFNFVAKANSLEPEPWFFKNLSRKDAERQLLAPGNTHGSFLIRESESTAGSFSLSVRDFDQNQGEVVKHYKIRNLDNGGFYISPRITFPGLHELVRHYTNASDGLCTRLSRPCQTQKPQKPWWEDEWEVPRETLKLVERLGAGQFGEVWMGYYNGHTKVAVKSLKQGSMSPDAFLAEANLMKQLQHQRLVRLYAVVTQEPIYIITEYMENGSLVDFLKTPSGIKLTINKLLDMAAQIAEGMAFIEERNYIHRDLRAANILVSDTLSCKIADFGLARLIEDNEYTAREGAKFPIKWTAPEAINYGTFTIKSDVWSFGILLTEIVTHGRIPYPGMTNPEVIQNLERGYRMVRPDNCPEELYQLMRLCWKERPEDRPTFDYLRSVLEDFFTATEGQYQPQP
T6 sequence (P04626 23-1255, species assumed): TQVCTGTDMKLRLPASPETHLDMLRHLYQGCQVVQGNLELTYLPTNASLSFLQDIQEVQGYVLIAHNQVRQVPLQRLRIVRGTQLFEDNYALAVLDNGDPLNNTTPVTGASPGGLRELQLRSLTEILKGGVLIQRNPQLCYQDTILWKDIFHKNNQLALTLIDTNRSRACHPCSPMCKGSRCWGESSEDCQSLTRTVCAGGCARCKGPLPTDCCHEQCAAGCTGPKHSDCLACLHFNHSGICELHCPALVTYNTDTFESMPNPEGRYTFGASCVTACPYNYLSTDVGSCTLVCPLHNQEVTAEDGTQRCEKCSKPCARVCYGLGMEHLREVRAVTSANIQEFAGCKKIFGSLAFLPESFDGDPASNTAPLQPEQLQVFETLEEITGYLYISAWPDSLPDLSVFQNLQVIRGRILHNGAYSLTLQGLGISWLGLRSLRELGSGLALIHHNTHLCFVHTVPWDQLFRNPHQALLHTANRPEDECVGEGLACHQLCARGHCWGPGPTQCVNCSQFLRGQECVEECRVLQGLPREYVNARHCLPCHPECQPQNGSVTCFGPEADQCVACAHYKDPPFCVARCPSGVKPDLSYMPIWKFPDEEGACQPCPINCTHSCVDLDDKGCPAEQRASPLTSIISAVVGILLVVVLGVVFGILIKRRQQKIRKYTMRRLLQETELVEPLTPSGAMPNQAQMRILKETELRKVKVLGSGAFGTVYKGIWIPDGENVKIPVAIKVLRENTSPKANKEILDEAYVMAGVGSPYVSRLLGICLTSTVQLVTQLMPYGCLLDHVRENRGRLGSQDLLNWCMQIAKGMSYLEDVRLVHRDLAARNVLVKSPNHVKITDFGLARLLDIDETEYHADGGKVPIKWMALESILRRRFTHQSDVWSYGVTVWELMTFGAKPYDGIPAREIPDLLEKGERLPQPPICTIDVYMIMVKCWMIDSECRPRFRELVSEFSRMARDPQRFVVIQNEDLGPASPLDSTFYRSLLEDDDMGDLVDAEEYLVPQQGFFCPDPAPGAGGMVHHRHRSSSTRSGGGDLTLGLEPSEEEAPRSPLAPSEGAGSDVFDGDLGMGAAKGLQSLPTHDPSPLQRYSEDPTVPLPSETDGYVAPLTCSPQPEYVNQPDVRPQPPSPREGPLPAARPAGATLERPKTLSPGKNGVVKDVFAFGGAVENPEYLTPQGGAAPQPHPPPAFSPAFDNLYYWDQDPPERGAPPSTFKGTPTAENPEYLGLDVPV
T10 sequence (Q9Y243 whole entry, the tested form may be a part): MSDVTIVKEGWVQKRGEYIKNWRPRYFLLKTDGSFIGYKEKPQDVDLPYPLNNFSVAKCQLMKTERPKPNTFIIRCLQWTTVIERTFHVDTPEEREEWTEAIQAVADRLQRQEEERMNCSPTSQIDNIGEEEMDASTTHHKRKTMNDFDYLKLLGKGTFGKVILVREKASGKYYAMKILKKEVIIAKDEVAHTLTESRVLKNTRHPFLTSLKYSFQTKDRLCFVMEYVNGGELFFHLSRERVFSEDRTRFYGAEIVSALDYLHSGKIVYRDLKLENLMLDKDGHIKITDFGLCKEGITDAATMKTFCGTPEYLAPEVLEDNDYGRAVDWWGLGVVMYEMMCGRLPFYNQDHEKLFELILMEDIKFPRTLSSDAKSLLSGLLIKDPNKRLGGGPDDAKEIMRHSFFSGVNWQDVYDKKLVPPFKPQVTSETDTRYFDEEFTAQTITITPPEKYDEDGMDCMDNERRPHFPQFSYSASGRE
T11 sequence (Q02763 23-1124, species assumed): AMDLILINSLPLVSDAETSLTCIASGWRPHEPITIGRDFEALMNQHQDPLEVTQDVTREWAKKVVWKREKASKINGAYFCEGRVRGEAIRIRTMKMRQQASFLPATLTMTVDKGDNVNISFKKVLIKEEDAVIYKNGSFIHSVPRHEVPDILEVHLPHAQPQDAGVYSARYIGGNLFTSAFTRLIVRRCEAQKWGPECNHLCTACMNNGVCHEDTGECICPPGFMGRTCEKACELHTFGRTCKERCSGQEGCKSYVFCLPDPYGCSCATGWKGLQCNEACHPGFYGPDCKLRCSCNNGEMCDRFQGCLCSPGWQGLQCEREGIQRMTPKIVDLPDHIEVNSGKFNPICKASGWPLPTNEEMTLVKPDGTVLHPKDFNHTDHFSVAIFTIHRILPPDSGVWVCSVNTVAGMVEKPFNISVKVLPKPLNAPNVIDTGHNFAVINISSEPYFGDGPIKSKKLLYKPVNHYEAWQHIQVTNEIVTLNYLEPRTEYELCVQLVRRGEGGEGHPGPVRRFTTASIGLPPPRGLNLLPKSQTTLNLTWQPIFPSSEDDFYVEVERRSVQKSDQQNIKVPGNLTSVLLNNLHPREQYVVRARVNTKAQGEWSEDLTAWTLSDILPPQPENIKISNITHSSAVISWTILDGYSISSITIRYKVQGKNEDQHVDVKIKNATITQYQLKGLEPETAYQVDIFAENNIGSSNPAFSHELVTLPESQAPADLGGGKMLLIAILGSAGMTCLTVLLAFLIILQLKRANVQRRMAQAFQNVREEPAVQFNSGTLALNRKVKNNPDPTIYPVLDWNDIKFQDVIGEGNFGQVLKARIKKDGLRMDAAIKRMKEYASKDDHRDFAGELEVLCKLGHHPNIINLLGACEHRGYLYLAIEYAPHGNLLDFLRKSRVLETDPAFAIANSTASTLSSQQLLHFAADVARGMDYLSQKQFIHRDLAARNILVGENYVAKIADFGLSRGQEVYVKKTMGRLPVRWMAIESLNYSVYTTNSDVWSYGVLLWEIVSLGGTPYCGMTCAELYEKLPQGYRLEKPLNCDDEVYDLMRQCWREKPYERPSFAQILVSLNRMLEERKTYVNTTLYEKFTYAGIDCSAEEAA
T1 sequence (P08069 31-1367): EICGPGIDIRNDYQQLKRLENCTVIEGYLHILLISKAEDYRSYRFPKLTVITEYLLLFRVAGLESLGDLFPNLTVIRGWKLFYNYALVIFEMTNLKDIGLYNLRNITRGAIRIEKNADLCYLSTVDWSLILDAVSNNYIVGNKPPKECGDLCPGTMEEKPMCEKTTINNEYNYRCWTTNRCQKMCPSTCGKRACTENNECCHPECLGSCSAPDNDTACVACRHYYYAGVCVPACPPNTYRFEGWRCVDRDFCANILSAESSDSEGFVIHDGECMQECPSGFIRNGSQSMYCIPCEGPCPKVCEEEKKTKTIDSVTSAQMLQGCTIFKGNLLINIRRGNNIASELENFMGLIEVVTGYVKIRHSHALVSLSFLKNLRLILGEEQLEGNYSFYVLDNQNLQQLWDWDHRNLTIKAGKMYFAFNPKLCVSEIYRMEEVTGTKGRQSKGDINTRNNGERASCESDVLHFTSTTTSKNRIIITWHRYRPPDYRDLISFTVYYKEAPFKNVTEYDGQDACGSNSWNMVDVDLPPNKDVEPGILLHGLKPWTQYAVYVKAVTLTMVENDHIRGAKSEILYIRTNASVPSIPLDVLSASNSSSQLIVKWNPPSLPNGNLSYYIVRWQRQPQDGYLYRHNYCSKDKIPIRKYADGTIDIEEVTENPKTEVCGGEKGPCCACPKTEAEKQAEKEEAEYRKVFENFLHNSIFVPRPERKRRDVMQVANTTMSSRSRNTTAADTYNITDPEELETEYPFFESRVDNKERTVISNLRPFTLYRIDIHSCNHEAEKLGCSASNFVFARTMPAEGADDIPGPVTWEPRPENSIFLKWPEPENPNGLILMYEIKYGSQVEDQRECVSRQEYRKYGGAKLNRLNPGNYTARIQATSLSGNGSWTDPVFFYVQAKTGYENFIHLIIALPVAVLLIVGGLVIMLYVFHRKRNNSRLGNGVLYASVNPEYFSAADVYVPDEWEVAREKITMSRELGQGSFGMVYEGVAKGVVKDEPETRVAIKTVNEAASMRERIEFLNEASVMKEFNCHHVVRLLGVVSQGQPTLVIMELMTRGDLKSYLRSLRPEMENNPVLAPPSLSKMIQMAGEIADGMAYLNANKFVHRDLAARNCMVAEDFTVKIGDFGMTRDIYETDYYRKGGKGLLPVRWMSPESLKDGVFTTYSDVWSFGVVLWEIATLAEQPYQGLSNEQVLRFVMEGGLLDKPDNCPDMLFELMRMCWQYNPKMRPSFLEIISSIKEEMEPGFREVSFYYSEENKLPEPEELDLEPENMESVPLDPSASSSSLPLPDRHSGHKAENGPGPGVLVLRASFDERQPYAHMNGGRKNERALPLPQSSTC

SMILES	IC50 (IGFR-1)	IC50 (Kdr)	IC50 (EGFR)	IC50 (c-Met)	IC50 (Lck)	IC50 (ErbB2)	IC50 (Zap-70)	IC50 (PDGFRB)	IC50 (Itk)	IC50 (AKT)	IC50 (Tek)
COc1ccc([C@@H](C)Nc2nc3ccccc3n2-c2ncnc(Nc3cc(OC)c(OC)c(OC)c3)n2)cc1 [Compound 1045]	> 8.53 µM	0.758 to 4.55 µM	> 8.53 µM	> 8.53 µM	0.758 to 4.55 µM	> 8.53 µM	> 8.53 µM	0.758 to 4.55 µM	> 8.53 µM	> 8.53 µM	
CN(c1cccc(Cl)c1)c1ncnc(NCCN2CCCCC2)n1 [Compound 740]	> 13 µM	> 13 µM	6.92 to 10.1 µM	> 13 µM	> 13 µM	> 13 µM	> 13 µM	> 13 µM	> 13 µM	> 13 µM	
COc1cc(Nc2ncnc(Nc3cc(-c4ccc(C(=O)NCCc5ccccc5)cc4)n[nH]3)n2)cc(OC)c1OC [Compound 1006]	< 0.706 µM	> 7.94 µM	> 7.94 µM	< 0.706 µM	0.706 to 4.24 µM	4.24 to 6.18 µM	> 7.94 µM	> 7.94 µM	4.24 to 6.18 µM	> 7.94 µM	
CNS(=O)(=O)Cc1ccc(Nc2ncnc(Nc3ccc4c(cnn4Cc4ccccc4)c3)n2)cc1 [Compound 736]	0.799 to 4.79 µM	0.799 to 4.79 µM	0.799 to 4.79 µM	0.799 to 4.79 µM	0.799 to 4.79 µM	0.799 to 4.79 µM	0.799 to 4.79 µM	0.799 to 4.79 µM	0.799 to 4.79 µM	0.799 to 4.79 µM	
Nc1nc2ccccc2n1-c1ncnc(Nc2cccc(CC(=O)O)c2)n1 [Compound 544]	< 1.11 µM	< 1.11 µM	> 12.5 µM	> 12.5 µM	> 12.5 µM	> 12.5 µM	> 12.5 µM	1.11 to 6.64 µM	> 12.5 µM	> 12.5 µM	
CN(c1cccc(Cl)c1)c1ncnc(Cl)n1 [Compound 701, N-methyl-2-chloro-4(3-chloroanilino)-1,3,5-triazine]	> 17.6 µM	> 17.6 µM	> 17.6 µM	> 17.6 µM	> 17.6 µM	> 17.6 µM	> 17.6 µM	> 17.6 µM	> 17.6 µM	> 17.6 µM	
CCN(c1ccc(C)cc1)c1ncnc(Nc2cc(OC)c(OC)c(OC)c2)n1 [Compound 538]	< 1.01 µM	< 1.01 µM	< 1.01 µM	< 1.01 µM	1.01 to 6.07 µM	1.01 to 6.07 µM	> 11.4 µM	1.01 to 6.07 µM	8.85 to 11.4 µM	> 11.4 µM	
COC(=O)Cc1cccc(Nc2ncnc(Nc3ccc(C)c(O)c3)n2)c1 [Compound 542]	1.09 to 6.57 µM	< 1.09 µM	1.09 to 6.57 µM	9.58 to 12.3 µM	1.09 to 6.57 µM	1.09 to 6.57 µM	> 12.3 µM	1.09 to 6.57 µM	1.09 to 6.57 µM	> 12.3 µM	
COc1ccc(Nc2ncnc(NCCC#N)n2)cc1OC [Compound 787]	> 15 µM	> 15 µM	> 15 µM	> 15 µM	> 15 µM	> 15 µM	> 15 µM	> 15 µM	> 15 µM	> 15 µM	
COc1cc(Nc2ncnc(Nc3cc(-c4ccc(C)cc4)n[nH]3)n2)cc(OC)c1OC [Compound 521]	< 0.923 µM	< 0.923 µM	0.923 to 5.54 µM	< 0.923 µM	< 0.923 µM	0.923 to 5.54 µM	> 10.4 µM		0.923 to 5.54 µM	> 10.4 µM	> 10.4 µM
COc1cc(C)c(Nc2ncnc(-n3c(N)nc4ccccc43)n2)cc1OC [Compound 524]	< 1.06 µM	1.06 to 6.36 µM	> 11.9 µM	6.36 to 9.27 µM	6.36 to 9.27 µM	6.36 to 9.27 µM	> 11.9 µM		9.27 to 11.9 µM	> 11.9 µM	> 11.9 µM
COc1cc(Nc2ncnc(Nc3cc(-c4cccc(C)c4)n[nH]3)n2)cc(OC)c1OC [Compound 1001]	< 0.923 µM	0.923 to 5.54 µM	0.923 to 5.54 µM	< 0.923 µM	< 0.923 µM	0.923 to 5.54 µM	> 10.4 µM		0.923 to 5.54 µM	> 10.4 µM	> 10.4 µM
COc1ccc(Nc2ncnc(Nc3cccc(-c4ccnc(C)n4)c3)n2)cc1OC [Compound 789]	0.963 to 5.78 µM	> 10.8 µM	> 10.8 µM	> 10.8 µM	0.963 to 5.78 µM		> 10.8 µM	5.78 to 8.42 µM	> 10.8 µM	> 10.8 µM	
COC(=O)c1cc(OC)c(OC)cc1Nc1ncnc(-n2c(N)nc3ccccc32)n1 [Compound 476]	0.949 to 5.7 µM	8.31 to 10.7 µM	> 10.7 µM	> 10.7 µM	> 10.7 µM	5.7 to 8.31 µM	> 10.7 µM		> 10.7 µM	> 10.7 µM	> 10.7 µM
COc1cc(Nc2ncnc(Nc3cc(-c4cccc(C(F)(F)F)c4)n[nH]3)n2)cc(OC)c1OC [Compound 1000]	0.821 to 4.92 µM	0.821 to 4.92 µM	4.92 to 7.18 µM	4.92 to 7.18 µM	0.821 to 4.92 µM	4.92 to 7.18 µM	> 9.23 µM		> 9.23 µM	7.18 to 9.23 µM	> 9.23 µM
NC(=O)c1ccccc1Nc1ncnc(-n2c(N)nc3ccccc32)n1 [Compound 473]	6.93 to 10.1 µM	10.1 to 13 µM	> 13 µM	10.1 to 13 µM	6.93 to 10.1 µM	10.1 to 13 µM	10.1 to 13 µM		> 13 µM	> 13 µM	> 13 µM
